{
  "source": "ChEMBL document CHEMBL1649377",
  "about": "“Synthesis, biological assessment and molecular modeling of new dihydroquinoline-3-carboxamides and dihydroquinoline-3-carbohydrazide derivatives as cholinesterase inhibitors, and Ca channel antagonists” (Eur J Med Chem, 2011)",
  "key": {"Cholinesterase": {"target": "Cholinesterase (Equus caballus, UniProt P81908)", "sequence (P81908 whole entry)": "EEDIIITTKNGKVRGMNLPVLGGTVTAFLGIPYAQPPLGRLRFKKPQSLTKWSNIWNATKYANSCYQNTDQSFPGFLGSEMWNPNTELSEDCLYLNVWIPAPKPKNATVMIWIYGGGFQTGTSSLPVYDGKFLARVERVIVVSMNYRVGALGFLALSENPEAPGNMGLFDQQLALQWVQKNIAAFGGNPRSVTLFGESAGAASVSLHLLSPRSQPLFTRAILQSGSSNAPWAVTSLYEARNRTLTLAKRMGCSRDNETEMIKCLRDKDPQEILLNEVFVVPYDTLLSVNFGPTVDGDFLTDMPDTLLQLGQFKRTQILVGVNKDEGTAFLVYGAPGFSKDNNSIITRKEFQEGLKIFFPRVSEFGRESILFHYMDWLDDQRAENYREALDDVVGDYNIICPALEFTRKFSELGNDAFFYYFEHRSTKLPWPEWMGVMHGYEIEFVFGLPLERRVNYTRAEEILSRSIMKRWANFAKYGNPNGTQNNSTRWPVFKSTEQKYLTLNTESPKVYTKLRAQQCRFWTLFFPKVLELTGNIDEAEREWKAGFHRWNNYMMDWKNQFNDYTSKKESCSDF", "test": "Inhibition of horse serum BChE after 15 mins by Ellman's method"}, "Acetylcholinesterase": {"target": "Acetylcholinesterase (Electrophorus electricus, UniProt O42275)", "sequence (O42275 whole entry)": "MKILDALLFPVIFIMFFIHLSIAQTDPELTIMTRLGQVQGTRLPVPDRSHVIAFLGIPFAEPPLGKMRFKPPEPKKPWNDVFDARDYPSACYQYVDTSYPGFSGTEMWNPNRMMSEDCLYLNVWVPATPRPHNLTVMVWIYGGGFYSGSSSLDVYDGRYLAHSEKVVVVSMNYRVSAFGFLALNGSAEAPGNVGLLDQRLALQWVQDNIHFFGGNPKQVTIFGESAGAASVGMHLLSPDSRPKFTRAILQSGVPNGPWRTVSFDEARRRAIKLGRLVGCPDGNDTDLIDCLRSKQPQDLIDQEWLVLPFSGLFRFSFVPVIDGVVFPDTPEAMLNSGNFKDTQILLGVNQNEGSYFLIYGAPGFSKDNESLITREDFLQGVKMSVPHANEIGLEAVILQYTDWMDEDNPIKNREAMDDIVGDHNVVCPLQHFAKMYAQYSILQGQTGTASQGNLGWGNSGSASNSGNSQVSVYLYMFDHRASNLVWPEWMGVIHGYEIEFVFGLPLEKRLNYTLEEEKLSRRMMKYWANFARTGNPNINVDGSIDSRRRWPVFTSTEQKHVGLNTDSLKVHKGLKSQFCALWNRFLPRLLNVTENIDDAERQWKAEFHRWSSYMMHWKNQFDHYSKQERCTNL", "description": "Inhibition of electric eel AChE after 15 mins by Ellman's method"}},
  "data": [
    {"smiles": "CCN1C(=O)NC2C(=C1C)C(=O)Nc1c2cccc1[N+](=O)[O-]", "note": "(racemic)", "values": [
      {"measurement": "IC50", "setting": "Cholinesterase", "value": "> 30", "unit": "µM"},
      {"measurement": "IC50", "setting": "Acetylcholinesterase", "value": 6, "unit": "µM"}
    ]},
    {"smiles": "NCCNCCNCCNC(=O)c1c(O)c2ccccc2[nH]c1=O", "values": [
      {"measurement": "IC50", "setting": "Cholinesterase", "value": 19, "unit": "µM"},
      {"measurement": "IC50", "setting": "Acetylcholinesterase", "value": 13, "unit": "µM"}
    ]},
    {"smiles": "Cn1c(=O)c(C(=O)NCCNCCNCCN)c(O)c2ccccc21", "values": [
      {"measurement": "IC50", "setting": "Cholinesterase", "value": 5.2, "unit": "µM"},
      {"measurement": "IC50", "setting": "Acetylcholinesterase", "value": "> 30", "unit": "µM"}
    ]},
    {"smiles": "CC1=C2C(=O)Nc3c(cccc3[N+](=O)[O-])C2NC(=O)N1C", "note": "(racemic)", "values": [
      {"measurement": "IC50", "setting": "Cholinesterase", "value": "> 30", "unit": "µM"},
      {"measurement": "IC50", "setting": "Acetylcholinesterase", "value": 8, "unit": "µM"}
    ]},
    {"smiles": "O=C(N/N=C/c1ccc(O)cc1O)c1c(O)c2c(Cl)cccc2[nH]c1=O", "values": [
      {"measurement": "IC50", "setting": "Cholinesterase", "value": "> 30", "unit": "µM"},
      {"measurement": "IC50", "setting": "Acetylcholinesterase", "value": 12, "unit": "µM"}
    ]}
  ]
}
